In paper PMC8944975, “Secretin Receptor as a Target in Gastrointestinal Cancer: Expression Analysis and Ligand Development” (Biomedicines, 2022):
Read-outs that look alike come from different tables or passages of the source.

Target: human SCTR (Homo sapiens, UniProt P47872)
Assay: agonist-induced β-arr2-GFP translocation
Type: cell-based
Parameters: expressed in transfected cells; host or cells: U2OS (human osteosarcoma), stably co-transfected with β-arrestin2-GFP
Conditions: for β-arrestin2-GFP agonism efficacy: % of wild-type secretin; for EC50: mean of at least three independent experiments in duplicates
Text: U2OS-SCTR/β-arr2-GFP: human osteosarcoma cell line U2OS (purchased from ATCC/LGC Standards, Wesel, Germany) were stably transfected with plasmids encoding SCTR (Homo sapiens) and the fusion protein β-arrestin2-green fluorescent protein (GFP) (Rattus norvegicus-Aequorea victoria) (β-arr2-GFP).
To evaluate reactivity of human SCTR exposed to different ligand variants, intracellular translocation of a fusion protein of β-arrestin2 and green fluorescent protein was utilized. For evaluation of activation, receptor-mediated recruitment of cytoplasmic β-arr2-GFP was monitored through its translocation into condensed intracellular vesicles. The extent of translocation events was quantified by determining the increasing granularization of the intracellular fluorescence utilizing an automated high-throughput microscope in combination with computational algorithms to estimate potency (EC50) and efficacy, thus characterizing ligand-SCTR interaction. U2OS-SCTR/β-arr2-GFP cells were seeded in 96-well cell culture plates to 60–80% confluence. On the following day, preceding stimulation, cells were incubated for one hour in serum-free medium. Ligand variants were applied as serial dilutions in assay buffer C1. After preincubation, supernatant was discarded by tapping plates overhead repeatedly. For stimulation, 50 µL of ligand dilution was applied per well in duplicates and incubated for 20 min at 37 °C. Successively, cells were fixed by applying 4% buffered formaldehyde (Herbeta Arzneimittel, Berlin, Germany) for 10 min at room temperature and consecutively permeabilized for 10 min at room temperature with 0.1% TritonX-100 in PBS, containing DAPI (4′,6-Diamidin-2-phenylindol, SigmaAldrich, Deisenhofen, Germany, 1 µg/mL) to counterstain nuclei. Microscopic images were recorded by an IN Cell Analyzer 1000 (GE Healthcare, Reading, UK) with 20× magnification at 5 frames per well in a 96-well format. Image processing was performed with IN Cell Investigator software (GE Healthcare, Reading, UK), applying the provided granularity algorithm. The output of the analysis was indicated as vesicle area/cell and was utilized for calculation of concentration–response curves. Parameters derived from curve fitting included the concentration of half-maximal activity (EC50), and intrinsic activity. Intrinsic activity was normalized defining reaction to non-modified wild type secretin as the 100% curve maximum value.

[1] = Supplementary Tables S1 and S2, decimal comma, '-' not detectable (Figure 4)
[2] = Supplementary Tables S1 and S2, U2OS-SCTR/β-arr2-GFP cells, 20 min at 37 °C, decimal comma, '-' not detectable (Figure 4), read-out: β-arrestin2-GFP agonism potency

human SCTR, sequence (P47872 23-440): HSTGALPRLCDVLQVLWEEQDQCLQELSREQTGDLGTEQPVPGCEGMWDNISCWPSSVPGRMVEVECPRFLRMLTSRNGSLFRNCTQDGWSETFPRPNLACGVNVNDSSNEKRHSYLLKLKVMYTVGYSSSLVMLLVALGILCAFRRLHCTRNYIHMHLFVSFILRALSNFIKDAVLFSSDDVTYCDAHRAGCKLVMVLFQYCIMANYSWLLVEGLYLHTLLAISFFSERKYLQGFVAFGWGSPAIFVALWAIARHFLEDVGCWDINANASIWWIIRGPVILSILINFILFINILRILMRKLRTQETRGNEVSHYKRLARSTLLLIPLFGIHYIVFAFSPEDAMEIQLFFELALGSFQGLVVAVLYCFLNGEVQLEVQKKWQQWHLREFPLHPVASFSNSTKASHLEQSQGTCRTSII

Compound | β-arrestin2-GFP agonism efficacy [1] | EC50 [2] [nM] | EC50 (U2OS-SCTR/β-arr2-GFP cells, ligand 20 min at 37 °C, vesicle area/cell by automated microscopy, read-out: EC50, β-arr2-GFP translocation assay) [nM] | Emax (U2OS-SCTR/β-arr2-GFP cells, normalized to wild type secretin = 100% curve maximum, read-out: intrinsic activity (efficacy), β-arr2-GFP translocation assay) [%]
CC(C)C[C@H](NC(=O)CNC(=O)[C@H](CCC(N)=O)NC(=O)[C@H](CC(C)C)NC(=O)[C@H](CC(C)C)NC(=O)[C@H](CCCNC(=N)N)NC(=O)[C@H](CCC(N)=O)NC(=O)[C@H](CC(C)C)NC(=O)[C@H](CCCNC(=N)N)NC(=O)[C@H](C)NC(=O)CNC(=O)[C@H](CCC(=O)O)NC(=O)[C@H](CCCNC(=N)N)NC(=O)[C@H](CC(C)C)NC(=O)[C@H](CCCNC(=N)N)NC(=O)[C@H](CO)NC(=O)[C@H](CC(C)C)NC(=O)[C@H](CCC(=O)O)NC(=O)[C@H](CO)NC(=O)[C@@H](NC(=O)[C@H](Cc1ccccc1)NC(=O)[C@@H](NC(=O)CNC(=O)[C@H](CC(=O)O)NC(=O)[C@H](CO)NC(=O)[C@@H]1CCCN1)[C@@H](C)O)[C@@H](C)O)C(=O)N[C@H](C(=O)O)C(C)C [Peptide 73] | 96,57 % Sec | 39.1 |  | 
CC(C)C[C@H](NC(=O)CNC(=O)[C@H](CCC(N)=O)NC(=O)[C@H](CC(C)C)NC(=O)[C@H](CC(C)C)NC(=O)[C@H](CCCNC(=N)N)NC(=O)[C@H](CCC(N)=O)NC(=O)[C@H](CC(C)C)NC(=O)[C@H](CCCNC(=N)N)NC(=O)[C@H](C)NC(=O)CNC(=O)[C@H](CCC(=O)O)NC(=O)[C@H](CCCNC(=N)N)NC(=O)[C@H](CC(C)C)NC(=O)[C@H](CCCNC(=N)N)NC(=O)[C@H](CO)NC(=O)[C@H](CC(C)C)NC(=O)[C@H](CCC(=O)O)NC(=O)[C@H](CO)NC(=O)[C@@H](NC(=O)[C@H](Cc1ccccc1)NC(=O)[C@@H](NC(=O)CNC(=O)[C@H](CC(=O)O)NC(=O)[C@@H]1CCCN1C(=O)[C@@H](N)Cc1c[nH]cn1)[C@@H](C)O)[C@@H](C)O)C(=O)N[C@H](C(=O)O)C(C)C [Peptide 74] | 106,23 % Sec | 3.37 |  | 
CC(C)C[C@H](NC(=O)CNC(=O)[C@H](CCC(N)=O)NC(=O)[C@H](CC(C)C)NC(=O)[C@H](CC(C)C)NC(=O)[C@H](CCCNC(=N)N)NC(=O)[C@H](CCC(N)=O)NC(=O)[C@H](CC(C)C)NC(=O)[C@H](CCCNC(=N)N)NC(=O)[C@H](C)NC(=O)CNC(=O)[C@H](CCC(=O)O)NC(=O)[C@H](CCCNC(=N)N)NC(=O)[C@H](CC(C)C)NC(=O)[C@H](CCCNC(=N)N)NC(=O)[C@H](CO)NC(=O)[C@H](CC(C)C)NC(=O)[C@H](CCC(=O)O)NC(=O)[C@H](CO)NC(=O)[C@@H](NC(=O)[C@H](Cc1ccccc1)NC(=O)[C@H](NC(=O)CNC(=O)[C@H](CC(=O)O)NC(=O)[C@H](CO)NC(=O)[C@@H](N)Cc1c[nH]cn1)[C@H](C)O)[C@@H](C)O)C(=O)N[C@H](C(=O)O)C(C)C [Peptide 89] | 102,97 % Sec |  |  | 
CC(C)C[C@H](NC(=O)[C@H](CCCNC(=N)N)NC(=O)[C@H](C)NC(=O)CNC(=O)[C@H](CCC(=O)O)NC(=O)[C@H](CCCNC(=N)N)NC(=O)[C@H](CC(C)C)NC(=O)[C@H](CCCNC(=N)N)NC(=O)[C@H](CO)NC(=O)[C@H](CC(C)C)NC(=O)[C@H](CCC(=O)O)NC(=O)[C@H](CO)NC(=O)[C@@H](NC(=O)[C@H](Cc1ccccc1)NC(=O)[C@@H](NC(=O)CNC(=O)[C@H](CC(=O)O)NC(=O)[C@H](CO)NC(=O)[C@@H](N)Cc1c[nH]cn1)[C@@H](C)O)[C@@H](C)O)C(=O)N[C@@H](CCC(N)=O)C(=O)N[C@@H](CCCNC(=N)N)C(=O)N[C@@H](CC(C)C)C(=O)N[C@@H](CC(C)C)C(=O)N[C@@H](CCC(N)=O)C(=O)NCC(=O)N[C@H](CC(C)C)C(=O)N[C@H](C(=O)O)C(C)C [Peptide 95] | 101,90 % Sec |  |  | 
CC(C)C[C@H](NC(=O)CNC(=O)[C@H](CCC(N)=O)NC(=O)[C@H](CC(C)C)NC(=O)[C@H](CC(C)C)NC(=O)[C@H](CCCNC(=N)N)NC(=O)[C@H](CCC(N)=O)NC(=O)[C@H](CC(C)C)NC(=O)[C@H](CCCNC(=N)N)NC(=O)[C@H](C)NC(=O)CNC(=O)[C@H](CCC(=O)O)NC(=O)[C@H](CCCNC(=N)N)NC(=O)[C@H](CC(C)C)NC(=O)[C@H](CCCNC(=N)N)NC(=O)[C@H](CO)NC(=O)[C@H](CC(C)C)NC(=O)[C@H](CCC(=O)O)NC(=O)[C@H](CO)NC(=O)[C@@H](NC(=O)[C@H](C)NC(=O)[C@@H](NC(=O)CNC(=O)[C@H](CC(=O)O)NC(=O)[C@H](CO)NC(=O)[C@@H](N)Cc1c[nH]cn1)[C@@H](C)O)[C@@H](C)O)C(=O)N[C@H](C(=O)O)C(C)C [Peptide 7] |  |  | 155 ± 30.8 | 61.8 ± 4.9
CC(C)C[C@H](NC(=O)CNC(=O)[C@H](CCC(N)=O)NC(=O)[C@H](CC(C)C)NC(=O)[C@H](CC(C)C)NC(=O)[C@H](CCCNC(=N)N)NC(=O)[C@H](CCC(N)=O)NC(=O)[C@H](CC(C)C)NC(=O)[C@H](CCCNC(=N)N)NC(=O)[C@H](C)NC(=O)CNC(=O)[C@H](CCC(=O)O)NC(=O)[C@H](CCCNC(=N)N)NC(=O)[C@H](CC(C)C)NC(=O)[C@H](CCCNC(=N)N)NC(=O)[C@H](CO)NC(=O)[C@H](CC(C)C)NC(=O)[C@H](CCC(=O)O)NC(=O)[C@H](CO)NC(=O)[C@@H](NC(=O)[C@H](Cc1ccccc1)NC(=O)[C@@H](NC(=O)CNC(=O)[C@@H](CC(=O)O)NC(=O)[C@H](CO)NC(=O)[C@@H](N)Cc1c[nH]cn1)[C@@H](C)O)[C@@H](C)O)C(=O)N[C@H](C(=O)O)C(C)C [Peptide 88] | 89,07 % Sec |  |  | 
CC(C)C[C@H](NC(=O)CNC(=O)[C@H](CCC(N)=O)NC(=O)[C@H](CC(C)C)NC(=O)[C@H](CC(C)C)NC(=O)[C@H](CCCNC(=N)N)NC(=O)[C@H](CCC(N)=O)NC(=O)[C@H](CC(C)C)NC(=O)[C@H](CCCNC(=N)N)NC(=O)[C@H](C)NC(=O)CNC(=O)[C@H](CCC(=O)O)NC(=O)[C@H](CCCCN)NC(=O)[C@H](CC(C)C)NC(=O)[C@H](CCCNC(=N)N)NC(=O)[C@H](CO)NC(=O)[C@H](CC(C)C)NC(=O)[C@H](CCC(=O)O)NC(=O)[C@H](CO)NC(=O)[C@@H](NC(=O)[C@H](Cc1ccccc1)NC(=O)[C@@H](NC(=O)CNC(=O)[C@H](CC(=O)O)NC(=O)[C@H](CO)NC(=O)[C@@H](N)Cc1c[nH]cn1)[C@@H](C)O)[C@@H](C)O)C(=O)N[C@H](C(=O)O)C(C)C [Peptide 68] | 114,30 % Sec | 9.53 |  | 
HSDGTFtSELSRLREGARLQRLLQGLV [Peptide 91, D-amino acid substitution variant of human secretin] | 98,33 % Sec |  |  | 
CC(C)C[C@H](NC(=O)CNC(=O)[C@H](CCC(N)=O)NC(=O)[C@H](CC(C)C)NC(=O)[C@H](CC(C)C)NC(=O)[C@H](CCCNC(=N)N)NC(=O)[C@H](CCC(N)=O)NC(=O)[C@H](CC(C)C)NC(=O)[C@H](CCCNC(=N)N)NC(=O)[C@H](C)NC(=O)[C@H](CC(C)C)NC(=O)[C@H](CCC(=O)O)NC(=O)[C@H](CCCNC(=N)N)NC(=O)[C@H](CC(C)C)NC(=O)[C@H](CCCNC(=N)N)NC(=O)[C@H](CO)NC(=O)[C@H](CC(C)C)NC(=O)[C@H](CCC(=O)O)NC(=O)[C@H](CO)NC(=O)[C@@H](NC(=O)[C@H](Cc1ccccc1)NC(=O)[C@@H](NC(=O)CNC(=O)[C@H](CC(=O)O)NC(=O)[C@H](CO)NC(=O)[C@@H](N)Cc1c[nH]cn1)[C@@H](C)O)[C@@H](C)O)C(=O)N[C@H](C(=O)O)C(C)C [Peptide 72] | 104,60 % Sec | 3.32 |  | 
CC(C)C[C@H](NC(=O)CNC(=O)[C@H](CCC(N)=O)NC(=O)[C@H](CC(C)C)NC(=O)[C@H](CC(C)C)NC(=O)[C@H](CCCNC(=N)N)NC(=O)[C@H](CCC(=O)O)NC(=O)[C@H](CC(C)C)NC(=O)[C@H](CCCNC(=N)N)NC(=O)[C@H](C)NC(=O)CNC(=O)[C@H](CCC(=O)O)NC(=O)[C@H](CCCNC(=N)N)NC(=O)[C@H](CC(C)C)NC(=O)[C@H](CCCNC(=N)N)NC(=O)[C@H](CO)NC(=O)[C@H](CC(C)C)NC(=O)[C@H](CCC(=O)O)NC(=O)[C@H](CO)NC(=O)[C@@H](NC(=O)[C@H](Cc1ccccc1)NC(=O)[C@@H](NC(=O)CNC(=O)[C@H](CC(=O)O)NC(=O)[C@H](CO)NC(=O)[C@@H](N)Cc1c[nH]cn1)[C@@H](C)O)[C@@H](C)O)C(=O)N[C@H](C(=O)O)C(C)C [Peptide 71] | 100,73 % Sec | 2.28 |  | 
